Measured values as given in ChEMBL document CHEMBL4020772, “Alkaloids from aerial parts of Houttuynia cordata and their anti-inflammatory activity” (Bioorg Med Chem Lett, 2017).

Tested on: RAW264.7
Assay: Antiinflammatory activity in mouse RAW264.7 cells assessed as reduction in LPS-induced NO production pretreated for 30 mins followed by LPS stimulation for 24 hrs by Griess assay
Type: functional, cell-based

Row | SMILES | IC50
1 | COCc1ccc(C=O)n1CCCC(=O)O | > 10 µM
2 | C[S+]([O-])C[C@H]1O[C@@H](n2cnc3c(N)ncnc32)[C@H](O)[C@@H]1O (some centres not stated) | > 10 µM
3 | COc1cc2c(cc1O)CC1c3c(cc(OC)c(OC)c3-2)CCN1C (configuration not stated) | > 10 µM
4 | Nc1ncnc2c1ncn2[C@@H]1O[C@H](CO)[C@@H](O)[C@H]1O [ADENOSINE] | > 10 µM
5 | C[C@@H]1C[C@H]2[C@@H]3CCC4=CC(=O)C=C[C@]4(C)[C@@]3(F)[C@@H](O)C[C@]2(C)[C@@]1(O)C(=O)CO [DEXAMETHASONE] | 7 µM
6 | NC(=O)c1cccnc1 [NIACINAMIDE] | > 10 µM
7 | COc1cc(CC2c3cc(O)c(OC)cc3CCN2C)ccc1O (configuration not stated) | > 10 µM
8 | O=C(NC[C@@H](O[C@@H]1O[C@H](CO)[C@@H](O)[C@H](O)[C@H]1O)c1ccccc1)c1cccc(O)c1 | > 10 µM
9 | O=C(O)c1c[nH]c2ccccc12 | > 10 µM
10 | O=C(NC[C@@H](O)c1ccccc1)c1ccc(O)cc1 | > 10 µM
11 | OCc1ccc(-c2nccc3c2[nH]c2ccccc23)o1 [PERLOLYRIN] | 8.7 µM
12 | COc1c(O)cc2c3c(cc4ccccc4c13)NC(=O)C2=O [NORARISTOLODIONE] | > 10 µM
13 | O[C@]12CO[C@@H](Cc3nccc4c3[nH]c3ccccc34)[C@H]1O2 | > 10 µM
14 | COc1cc2c(cc1O)CC1c3c(cc(OC)c(O)c3-2)CCN1C (configuration not stated) | > 10 µM
15 | O=C(NC[C@@H](O[C@@H]1O[C@H](CO)[C@@H](O)[C@H](O)[C@H]1O)c1ccccc1)c1ccccc1 | > 10 µM
16 | COc1cc2c(cc1O)CC1NCCc3cc(OC)c(O)c-2c31 (configuration not stated) | > 10 µM
17 | COc1cc2c3c(c1OC)-c1ccccc1CC3NCC2 (configuration not stated) [NORNUCIFERINE] | > 10 µM
18 | COc1c(O)cc2c3c1-c1ccccc1CC3NCC2 (configuration not stated) | > 10 µM
19 | O=c1ccn([C@@H]2O[C@H](CO)[C@@H](O)[C@H]2O)c(=O)[nH]1 [URIDINE] | > 10 µM
20 | COc1c(O)cc2c3c1-c1ccccc1CC3N(C)CC2 (configuration not stated) | > 10 µM
21 | O=c1ccc2ccccc2[nH]1 | > 10 µM
22 | COc1cc2c(cc1O)CC1NCCc3cc(OC)c(OC)c-2c31 (configuration not stated) | > 10 µM
